According to patent publication US8350010B2, “Anti-alpha5/beta1 antibody” (Genentech, Inc., priority 2006, dated 2013):

System: HCT116 tumor cells (colon tumor cells)
Experiment: HCT116 colon tumor model, anti-alpha5beta1 + chemotherapy
Assay type: in vivo, HRLN female nu/nu mice
Conditions: chemotherapeutic agent by itself
Description: HRLN female nu/nu mice were injected with 5×10^6 HCT116 tumor cells (colon tumor cells) subcutaneously in their flanks. Tumors were allowed to grow until they reach an average size of 80-120 cubic mm before treatment with therapies. Tumor bearing mice were then divided into 4 groups:
Tumor volume measurement was carried out twice a week using a standard caliper measurement method. The hamster anti-mouse integrin alpha5 mab, known as 10E7, was generated at Genentech. Body weight was measured 5 times over 2 days then twice per week (biwk) to the end of the study. The endpoint of the experiment was a tumor volume of 1.5 gms or 60 days, whichever came first. Some responders were followed longer. When the endpoint was reached, the animals were euthanized. The dosing volume was 10 mL/kg (0.200 ml/20 g mouse), which volume was adjusted for body weight. 10E7 was administered 30 minutes before irinotecan administration. For animals showing complete regression (CR), tissues at the site of tumor implantation were collected at endpoint and preserved in formulin followed by 70% EtOH for later study. All samples to be frozen were placed in a cryomold, wrapped in foil & snap frozen on liquid nitrogen.

SMILES: CCc1c2c(nc3ccc(OC(=O)N4CCC(N5CCCCC5)CC4)cc13)-c1cc3c(c(=O)n1C2)COC(=O)[C@]3(O)CC [irinotecan]
- vascular damage: did not cause significant vascular damage
